Test results from US9045490B2, “Use of parthenolide derivatives as antileukemic and cytotoxic agents” (University of Kentucky, priority 2003, dated 2015).

Columns and labels:
[1] = tested on: primary acute myelogenous leukemia (AML) cells; test: Assay for antileukemic activity (Annexin V/7-AAD apoptosis analysis by flow cytometry); format: cell-based; conditions: 24 hours of culture
Description: For apoptosis analysis, one million primary acute myelogenous leukemia (AML) cells were washed with cold PBS and resuspended in 200 microliters of Annexin binding buffer (10 mM HEPES/NaOH pH 7.4; 140 mM NaCl; 2.5 mM CaCl2). Annexin V-FITC (Pharmingen) and 0.25 mg/mL 7-AAD (7-aminoactinomycin D, Molecular Probes, CA) were added and the tubes were incubated at room temperature in the dark for 15 minutes. Cells were then diluted with 200 microliters of Annexin binding buffer and analyzed immediately by flow cytometry. Viable cells were identified as failing to label with Annexin V or 7-AAD. Cells beginning to die label with Annexin V, and as membrane integrity is lost, will also label with 7-AAD. […] Data are normalized to untreated control specimens. The data are in Table 1 for aminoparthenolide derivatives and Table 2 for the salts of some aminoparthenolides.

[2] = tested on: breast cancer cell line mdl-231; test: Clonogenic assay; format: cell-based; conditions: mdl-231, 2 μm concentration (parthenolide: similar dosage ranges)
[3] = tested on: breast cancer cell line hbl-100; test: Clonogenic assay; format: cell-based; conditions: hbl-100, 2 μm concentration (parthenolide: similar dosage ranges)
[4] = tested on: AML cells (AML stem cell compartment); test: Human-mouse xenograft: NOD/SCID engraftment of AML cells treated in vitro; format: in vivo, human cells in NOD/SCID mice; conditions: 7.5 micromolar in vitro for 12-18 hours, bone marrow analysed after 6-8 weeks (CD45)
Description: (§1) To assess the effect of parthenolide on primary human stem cell populations, experiments were conducted using transplantation into immune deficient NOD/SCID mice. […] For each experiment, cryopreserved mononuclear cell specimens from normal or AML donors were thawed, and treated in vitro with 7.5 micromolar parthenolide for 12-18 hours. Following culture, 5-10 million cells/animal were injected intravenously into sublethally irradiated (300 Rad) NOD/SCID mice. After 6-8 weeks, animals were sacrificed and bone marrow was analyzed for the presence of human cells using flow cytometry as previously described (Guzman et al., Proc Natl Acad Sci USA 2002; 99: 16220-162253). Human specific antibodies for CD45 were used to assess the level of total engraftment.

[5] = tested on: breast cancer cell line 436; test: Clonogenic assay; format: cell-based; conditions: 436 cells, 2 μm concentration (parthenolide: similar dosage ranges)
[6] = tested on: radiation sensitive cell line A549; test: Radiation sensitisation by pretreatment, survival fraction; format: cell-based; conditions: A549, 2.5 micromolar pretreatment
Source text: The radiation sensitive cell line A549 was pretreated with parthenolide concentrations ranging from 0 to 2.5 micromolar. The cells were then subjected to ionizing radiation doses ranging from 0-6Gy and survival fraction of the cells determined. […] Cells not receiving pre-treatment with parthenolide had greater than 50% survival fraction at the highest radiation dose of 6Gy and over 90% survival at 2Gy.

[7] = tested on: Healthy human bone marrow cells; test: Cytotoxicity to healthy bone marrow cells (same Annexin V/7-AAD assay); format: cell-based; conditions: 10 μM
Description: For apoptosis analysis, one million primary acute myelogenous leukemia (AML) cells were washed with cold PBS and resuspended in 200 microliters of Annexin binding buffer (10 mM HEPES/NaOH pH 7.4; 140 mM NaCl; 2.5 mM CaCl2). Annexin V-FITC (Pharmingen) and 0.25 mg/mL 7-AAD (7-aminoactinomycin D, Molecular Probes, CA) were added and the tubes were incubated at room temperature in the dark for 15 minutes. Cells were then diluted with 200 microliters of Annexin binding buffer and analyzed immediately by flow cytometry. Viable cells were identified as failing to label with Annexin V or 7-AAD. Cells beginning to die label with Annexin V, and as membrane integrity is lost, will also label with 7-AAD. For each parthenolide derivative, the percentage of viable cells was determined after 24 hours of culture at a 10 micromolar concentration. Data are normalized to untreated control specimens. The data are in Table 1 for aminoparthenolide derivatives and Table 2 for the salts of some aminoparthenolides.
Healthy human bone marrow cells were used in the above assay to test the cytotoxicity of parthenolide. Eighty-five percent of the normal cells survived 10 μM of parthenolide. All the aminoparthenolides evaluated afforded results similar to parthenolide, i.e. the survival rate of healthy human bone marrow cells was over 85% at a concentration of 10 μM.

[8] = tested on: normal hematopoietic stem cells; test: Human-mouse xenograft: NOD/SCID engraftment of normal donor cells treated in vitro; format: in vivo; conditions: 7.5 micromolar in vitro for 12-18 hours, bone marrow analysed after 6-8 weeks (CD45)
Description: as §1

[9] = Oral bioavailability in mice: plasma level by LC-MS; format: in vivo; conditions: mouse, 40 mg/kg oral, LC-MS, average of 5 mice, read-out: plasma level one hour after oral gavage
Description: Preliminary in vivo work was conducted to determine the bioavailability and toxicity of this agent in mice.

[10] = tested on: lung cancer cell line A549; test: MTS-PMS cellular proliferation assay; format: cell-based; conditions: Homo sapiens
Description: (§2) A 96-well U-bottomed plate (Becton Dickinson Labware, Franklin Lakes, N.J.) at a concentration of 5,000 cells per 50 microliters […] of media was incubated in 5% CO2 at 37° C. for 24 hours. Varying compound concentrations in […] of media were added to the media 24 hours later. Colorimetric readings were obtained using the MTS/PMS system and an ELISA plate reader, after 48 hours of exposure to DMAPT. The readings obtained for each concentration tested were from an average of eight wells. Each experiment was expressed as a percentage of the solvent control and completed at least three times with consistent results. The results presented are an average of three experiments. The hormone refractory prostate cancer cell line CWR22Rv1 was treated with increasing concentrations of parthenolide and DMAPT. for three hours Both parthenolide and DMAPT reduced cellular proliferation by 50% at 5 μm in the CWR22 MTS-PMS assay. Cellular proliferation was also measured in the MTS-PMS assay using four lung cancer cell lines treated with parthenolide and derivatives PIPT ((11S,11,13-dihydro,13-(piperidin-1-yl)parthenolide), 4MEPT (11S,11,13-dihydro,13-(4-methylpiperidin-1-yl)parthenolide) and MAPT (11S,11,13-dihydro,13-dimethylaminoparthenolide). Parthenolide and its derivatives inhibited cellular proliferation in a dose dependent manner between 2 and 10 μM with 70% inhibition at 10 μM in A549, 50% in H460, 40% in H-23 and 40% in H522 (FIGS. 2-5).

[11] = tested on: hormone refractory prostate cancer cell line CWR22Rv1; test: MTS-PMS cellular proliferation assay; format: cell-based; conditions: at 5 μm, CWR22 MTS-PMS assay
Description: as §2

[12] = tested on: lung cancer cell line H460; test: MTS-PMS cellular proliferation assay; format: cell-based; conditions: Homo sapiens, NCI-H460
Description: as §2

[13] = tested on: lung cancer cell line H522; test: MTS-PMS cellular proliferation assay; format: cell-based; conditions: Homo sapiens, NCI-H522
Description: as §2

[14] = tested on: lung cancer cell line H-23; test: MTS-PMS cellular proliferation assay; format: cell-based
Description: as §2

[15] = 10 μM, normalized to untreated control

| Molecule | Antileukemic activity [1, 15] | other results |
| --- | --- | --- |
| CNC[C@H]1C(=O)O[C@H]2[C@H]1CC/C(C)=C/CC[C@@]1(C)O[C@@H]21 [11S,11,13-Dihydro,13-methylaminoparthenolide] | 10 μM, 4% |  |
| C=C1CCC2C(CN(CC)Cc3ccccc3)C(=O)OC2C2C(=C)CCC12 (centres unmarked) [11H, 13-(N-Ethyl-N-benzyl)-dehydrocostuslactone] | 10 μM, 13% |  |
| 11S,11,13-Dihydro,13-methyl pentyl aminoparthenolide | 10 μM, 45% |  |
| C=C1CCC2C(CN(C)C)C(=O)OC2C2C(=C)CCC12 (centres unmarked) [11H, 13-(N,N-Dimethylamino)-dehydrocostuslactone] | 10 μM,12% |  |
| 11S,11,13-dihydro,13-(piperidin-1-yl)parthenolide hydrochloride | 10 μM, 88% |  |
| 11S,11,13-Dihydro,13-diethylaminoparthenolide [DEAPT] | 10 μM, 60% |  |
| C=C1CCC2C(CNCCC)C(=O)OC2C2C(=C)CCC12 (centres unmarked) [11H, 13-(N-Propylamino)-dehydrocostuslactone] | 10 μM, 24% |  |
| 11S,11,13-Dihydro,13-methylbutyl aminoparthenolide | 10 μM, 68% |  |
| C/C1=C\CC[C@@]2(C)O[C@H]2[C@H]2OC(=O)[C@H](CN3CCN(C)CC3)[C@@H]2CC1 [Compound 4MePizPT, 11S,11,13-Dihydro,13-(4-methylpiperazin-1-yl)parthenolide] | 10 μM, 7% |  |
| CC1=CCCC2(C)OC2C2OC(=O)C(CN3CCCCCCC3)C2CC1 (centres unmarked) [HeptaMePipt, 11S,11,13-Dihydro,13-(heptamethyleneimin-1-yl)parthenolide] | 10 μM, 10% |  |
| CC1=CCCC2(C)OC2C2OC(=O)C(CN3CCCCCC3)C2CC1 (centres unmarked) [HomoPipPT, 11S,11,13-Dihydro,13-(homopiperidin-1-yl)parthenolide] | 10 μM, 40% |  |
| 11S,11,13-Dihydro,13-(pyrrolidin-1-yl)parthenolide [PyrPT] | 10 μM, 85% | Antileukemic activity ([1]; 5 μM): 5 μM, 23%; Antileukemic activity ([1]; 20 μM): 20 μM, 95% |
| 11S,11,13-Dihydro,13-(4-methylpiperidin-1-yl)parthenolide [Compound 4MePipPT] | 10 μM, 83% |  |
| C=CCN(CC=C)CC1C(=O)OC2C1CCC(=C)C1CCC(=C)C12 (centres unmarked) [11H, 13-(N-Diallyl)-dehydrocostuslactone] | 10 μM, 2% |  |
| 11S,11,13-Dihydro,13-(tert-butylamino)parthenolide [tBAPT] | 10 μM, 20% |  |
| 11S, 11,13-Dihydro,13-(4-methylpiperidin-1-yl)parthenolide hydrochloride | 10 μM, 62% |  |
| C=C1CCC2C(CN3CCOCC3)C(=O)OC2C2C(=C)CCC12 (centres unmarked) [11H, 13-(N-Morpholine)-dehydrocostuslactone] | 10 μM, 10% |  |
| C=C1CCC2C(CN(C)CCCCC)C(=O)OC2C2C(=C)CCC12 (centres unmarked) [11H, 13-(N-Methyl-N-pentylamino)-dehydrocostuslactone] | 10 μM, 0% |  |
| CC1=CCCC2(C)OC2C2OC(=O)C(CNC3CC3)C2CC1 (centres unmarked) [11S,11,13-Dihydro,13-cyclopropylaminoparthenolide] | 10 μM, −6% |  |
| C#CCNCC1C(=O)OC2C1CCC(C)=CCCC1(C)OC21 (centres unmarked) [11S,11,13-Dihydro,13-propargylaminoparthenolide] | 10 μM, 7% |  |
| C=C1CCC2C(CN(C)CCCC)C(=O)OC2C2C(=C)CCC12 (centres unmarked) [11H, 13-(N-Butyl-N-methylamino)-dehydrocostuslactone] | 10 μM, 8% |  |
| C=C1CCC2C(CN(CC)CC)C(=O)OC2C2C(=C)CCC12 (centres unmarked) [11H, 13-(N,N-Diethylamino)-dehydrocostuslactone] | 10 μM, 5% |  |
| C=C1CCC2C(CN3CCCC3)C(=O)OC2C2C(=C)CCC12 (centres unmarked) [11H, 13-(N-Pyrrolidine)-dehydrocostuslactone] | 10 μM, 20% |  |
| 11S,11,13-Dihydro,13-(morpholin-1-yl)parthenolide [MorPT] |  | Antileukemic activity ([1]; 20 μM): 20 μM, 20% |
| C=C1CCC2C(CN3CCCCC3)C(=O)OC2C2C(=C)CCC12 (centres unmarked) [11H, 13-(N-Piperidine)-dehydrocostuslactone] | 10 μM, 14% |  |
| C/C1=C\CC[C@@]2(C)O[C@H]2[C@H]2OC(=O)[C@H](CN3CCCCC3)[C@@H]2CC1 [PipPT, 11S,11,13-Dihydro,13-(piperidin-1-yl)parthenolide] |  | Antileukemic activity ([1]; 2.5 μM): 2.5 μM, 71%; Antileukemic activity ([1]; 5 μM): v5 μM, 91% |
| CCNCC1C(=O)OC2C1CCC(C)=CCCC1(C)OC21 (centres unmarked) [11S,11,13-Dihydro,13-ethylaminoparthenolide] | 10 μM, 2% |  |
| C=C1CCC2C(CN(C)CCC)C(=O)OC2C2C(=C)CCC12 (centres unmarked) [11H, 13-(N-Methyl-N-propylamino)-dehydrocostuslactone] | 10 μM, 1% |  |
| C=C1C(=O)O[C@@H]2[C@H]3O[C@]3(C)CC/C=C(\C)CC[C@@H]12 [Parthenolide] | 10 μM, 84% | inhibition of proliferation [2]: reduced proliferation; inhibition of proliferation [3]: reduced proliferation; level of engraftment of treated AML cells in NOD/SCID mice [4]: dramatically reduced; inhibition of proliferation [5]: reduced proliferation; survival fraction ([6]; 2Gy): 10%; survival fraction ([6]; 6Gy): less than 1%; survival rate of healthy human bone marrow cells [7]: Eighty-five; level of engraftment of treated normal cells in NOD/SCID mice [8]: no reduction in engraftment; concentration at 1 h [9]: ~200 nM; inhibition at 10 µM [10]: 70%; reduction of cellular proliferation [11]: 50%; inhibition at 10 µM [12]: 50%; inhibition at 10 µM [13]: 40%; inhibition at 10 µM [14]: 40% |
| CC1=CCCC2(C)OC2C2OC(=O)C(CN3CCCC3)C2CC1.Cl (centres unmarked) [11S, 11,13-Dihydro,13-(pyrrolidin-1-yl)parthenolide hydrochloride] | 10 μM, 85% |  |
